# The source made the active and inactive calls.
# How the values were obtained:
# [1] = biological target: Glucose-6-phosphate 1-dehydrogenase (Homo sapiens, UniProt P11413); test: inhibition of Homo sapiens G6PD, dose series – biochemical, fluorescence, selectivity assay for P. falciparum G6PD inhibitor project, dose response (AID 504792); type: functional
# [2] = biological target: T1, Leucine aminopeptidase (Plasmodium falciparum 3D7, UniProt Q8IL11); test: P. falciparum M17LAP inhibitors, primary screen, biochemical, fluorogenic H-Leu-NHMec substrate, 1536-well (AID 1619); type: functional
# T1 sequence (Q8IL11 whole entry): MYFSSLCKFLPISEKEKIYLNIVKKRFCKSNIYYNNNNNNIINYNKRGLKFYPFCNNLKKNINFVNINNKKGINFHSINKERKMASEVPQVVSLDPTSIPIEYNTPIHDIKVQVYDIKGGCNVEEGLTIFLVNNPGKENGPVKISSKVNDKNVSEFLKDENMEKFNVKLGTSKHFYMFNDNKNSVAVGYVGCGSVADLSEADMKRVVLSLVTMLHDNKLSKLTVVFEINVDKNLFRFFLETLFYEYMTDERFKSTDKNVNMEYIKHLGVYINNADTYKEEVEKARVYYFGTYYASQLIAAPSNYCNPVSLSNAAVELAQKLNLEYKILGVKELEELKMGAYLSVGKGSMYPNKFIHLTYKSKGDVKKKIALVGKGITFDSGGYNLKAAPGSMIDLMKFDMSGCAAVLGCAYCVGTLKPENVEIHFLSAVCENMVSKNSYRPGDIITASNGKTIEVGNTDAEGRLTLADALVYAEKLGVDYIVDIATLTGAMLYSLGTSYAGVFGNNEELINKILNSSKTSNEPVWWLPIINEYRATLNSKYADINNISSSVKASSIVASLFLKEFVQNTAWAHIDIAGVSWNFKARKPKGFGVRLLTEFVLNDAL
# [3] = biological target: G-protein coupled receptor 55 (Homo sapiens, UniProt Q9Y2T6); test: inhibition of LPI-stimulated GPR55 beta-arrestin translocation – imaging, U2OS, beta-arrestin-GFP, LPI agonist, primary screen (AID 2013); type: functional;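 further: antagonist potency measured as reduced agonist-driven arrestin aggregation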
# Sequence of G-protein coupled receptor 55 (Q9Y2T6 whole entry): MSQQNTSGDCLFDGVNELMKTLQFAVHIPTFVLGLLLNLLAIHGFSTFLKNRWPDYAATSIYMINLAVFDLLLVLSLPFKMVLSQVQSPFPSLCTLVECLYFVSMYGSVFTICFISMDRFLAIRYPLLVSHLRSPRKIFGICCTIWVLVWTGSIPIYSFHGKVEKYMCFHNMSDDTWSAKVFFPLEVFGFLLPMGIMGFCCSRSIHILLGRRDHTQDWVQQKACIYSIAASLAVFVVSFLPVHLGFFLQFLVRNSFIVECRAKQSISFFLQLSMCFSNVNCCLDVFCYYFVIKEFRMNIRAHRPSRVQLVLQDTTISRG
# [4] = biological target: T2, Small ubiquitin-related modifier 1 (Homo sapiens, UniProt P63165); test: SUMO1 protein interaction blockers, potency – biochemical, fluorescence polarization, uHTS hits, dose response (AID 624382); type: functional; conditions: read-out: IC50_Mean
# T2 sequence (P63165 whole entry): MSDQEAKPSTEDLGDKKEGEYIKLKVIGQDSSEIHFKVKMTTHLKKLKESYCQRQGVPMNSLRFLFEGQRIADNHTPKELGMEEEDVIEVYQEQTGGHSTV
# [5] = biological target: T2, Small ubiquitin-related modifier 1; test: SUMO1 protein-protein binding blockers, potency – biochemical, FRET, dose response (AID 624383); type: functional; conditions: read-out: IC50_Mean
# [6] = tested on: BJ; test: cells; type: functional, cell-based; conditions: Homo sapiens
# [7] = DRD fibroblast viability loss – cell-based, non-viral oncogenic, luminescence, dose response (AID 1934); type: functional; conditions: Homo sapiens
# [8] = A Cell Based Secondary Assay To Explore Cytotoxicity of Compounds that Sensitize Mycobacterium Tuberculosis to Beta-Lactam Antibiotics.; type: functional
# [9] = tested on: BJ; test: BJ-TERT fibroblast viability loss – cell-based, RAS-independent, luminescence, dose response (AID 1933); type: functional; conditions: Homo sapiens
# [10] = tested on: BJ; test: BJ-TERT-LT-ST fibroblast viability loss – cell-based, RAS-independent, luminescence, dose response (AID 1935); type: functional; conditions: Homo sapiens;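 further: BJ fibroblasts immortalized with TERT plus LT and ST oncogenes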
# [11] = biological target: T3, Heat shock factor protein 1 (Mus musculus, UniProt P38532); test: enhancement of HSF1-driven luciferase signal – cell-based, NIH3T3, luminescence, dose retest, confirmation (AID 435004); type: functional;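 further: stress induced by proteasome inhibitor MG132 added 30 min after compound; luciferase reporter driven by HSF1 response element in NIH3T3 cells; actives raise luminescence as potentiators of the MG132 stress response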
# T3 sequence (P38532 whole entry): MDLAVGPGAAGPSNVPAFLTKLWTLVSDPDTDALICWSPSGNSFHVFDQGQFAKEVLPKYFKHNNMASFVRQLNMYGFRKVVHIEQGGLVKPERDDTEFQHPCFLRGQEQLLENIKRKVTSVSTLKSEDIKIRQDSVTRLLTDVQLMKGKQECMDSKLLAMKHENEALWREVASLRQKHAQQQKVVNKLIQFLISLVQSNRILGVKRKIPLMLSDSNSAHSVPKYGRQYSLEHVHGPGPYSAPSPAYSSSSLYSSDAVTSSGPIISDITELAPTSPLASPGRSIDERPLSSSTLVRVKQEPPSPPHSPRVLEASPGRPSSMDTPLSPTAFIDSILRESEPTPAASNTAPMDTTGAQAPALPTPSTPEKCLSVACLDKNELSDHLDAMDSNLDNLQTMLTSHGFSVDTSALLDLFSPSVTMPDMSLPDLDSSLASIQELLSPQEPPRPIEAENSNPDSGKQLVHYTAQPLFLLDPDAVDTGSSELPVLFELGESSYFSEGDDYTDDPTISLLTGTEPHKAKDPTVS
# [12] = tested on: INS1; test: INS-1E survival protection against cytokine death – cell-based, luminescence, retest, dose response (AID 449756); type: functional; conditions: Rattus norvegicus;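 further: cell death triggered by IL-1 beta plus TNF-alpha plus IFN-gamma mixture; protective hits raise ATP signal compared with cytokine alone wells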
# [13] = tested on: HEK293; test: EBV LMP1 TES2 canonical NF-kB signalling blockers – cell-based, HEK293, luciferase, cherry-pick, dose response (AID 588343); type: functional; conditions: Homo sapiens
# [14] = biological target: Glyceraldehyde-3-phosphate dehydrogenase (Homo sapiens, UniProt P04406)
# Sequence of Glyceraldehyde-3-phosphate dehydrogenase (P04406 whole entry, the tested form may be a part): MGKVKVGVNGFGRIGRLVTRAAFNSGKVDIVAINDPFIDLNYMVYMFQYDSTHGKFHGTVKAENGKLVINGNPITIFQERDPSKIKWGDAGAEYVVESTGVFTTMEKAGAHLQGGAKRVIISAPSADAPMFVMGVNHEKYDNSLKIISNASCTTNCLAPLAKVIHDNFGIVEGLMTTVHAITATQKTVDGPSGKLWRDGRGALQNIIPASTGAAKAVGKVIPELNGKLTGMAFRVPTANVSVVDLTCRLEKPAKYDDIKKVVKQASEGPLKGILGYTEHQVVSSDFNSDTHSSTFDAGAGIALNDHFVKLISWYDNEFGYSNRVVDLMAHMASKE
# [15] = biological target: T4, Carboxy-terminal domain RNA polymerase II polypeptide A small phosphatase 1 (Homo sapiens, UniProt Q9GZU7); test: CTDSP1 inhibitors, concentration-response, biochemical, absorbance readout, ultra-high-throughput screen actives (AID 540297); type: functional
# T4 sequence (Q9GZU7 whole entry): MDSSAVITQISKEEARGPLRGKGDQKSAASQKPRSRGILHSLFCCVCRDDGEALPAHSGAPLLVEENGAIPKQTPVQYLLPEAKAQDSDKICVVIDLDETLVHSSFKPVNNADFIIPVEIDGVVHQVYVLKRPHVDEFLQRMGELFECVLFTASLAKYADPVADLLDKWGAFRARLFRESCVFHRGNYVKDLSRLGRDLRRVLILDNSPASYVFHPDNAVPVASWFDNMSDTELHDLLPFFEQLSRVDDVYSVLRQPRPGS
# [16] = biological target: Large T antigen (Simian virus 40, UniProt P03070); type: functional, Betapolyomavirus macacae;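 further: Confirmatory-stage PubChem screen for compounds that inhibit SV40 T antigen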
# Sequence of Large T antigen (P03070 whole entry): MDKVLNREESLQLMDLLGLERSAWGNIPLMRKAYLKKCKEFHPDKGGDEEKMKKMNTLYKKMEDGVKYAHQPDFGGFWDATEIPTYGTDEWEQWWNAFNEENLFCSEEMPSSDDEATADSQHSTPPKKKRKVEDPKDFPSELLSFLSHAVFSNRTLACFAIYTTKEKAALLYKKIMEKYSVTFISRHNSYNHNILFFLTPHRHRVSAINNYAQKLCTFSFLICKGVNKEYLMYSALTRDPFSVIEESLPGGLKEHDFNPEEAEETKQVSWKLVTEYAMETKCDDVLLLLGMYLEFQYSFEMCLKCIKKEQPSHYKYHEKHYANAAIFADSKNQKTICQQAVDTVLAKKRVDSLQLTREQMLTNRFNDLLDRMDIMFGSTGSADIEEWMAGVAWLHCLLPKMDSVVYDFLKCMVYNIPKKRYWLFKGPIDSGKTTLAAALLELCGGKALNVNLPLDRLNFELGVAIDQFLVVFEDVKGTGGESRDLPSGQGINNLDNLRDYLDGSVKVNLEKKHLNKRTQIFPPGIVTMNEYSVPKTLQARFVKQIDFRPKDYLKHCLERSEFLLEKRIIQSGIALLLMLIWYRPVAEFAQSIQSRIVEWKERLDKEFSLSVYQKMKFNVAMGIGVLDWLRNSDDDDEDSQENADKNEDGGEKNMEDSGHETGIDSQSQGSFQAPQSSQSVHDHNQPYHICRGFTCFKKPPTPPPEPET
# [17] = biological target: Protein Wnt-3a (Mus musculus, UniProt P27467); test: antagonism of Wnt3a pathway luciferase reporter – Wnt-LIGHT cells, luminescence, selectivity assay for Gli-SUFU antagonist project, dose response (AID 651570); type: functional; conditions: read-out: IC50_Mean;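 further: Wnt-LIGHT reporter cells stimulated with conditioned medium from Wnt3a-producing cells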
# Sequence of Protein Wnt-3a (P27467 whole entry): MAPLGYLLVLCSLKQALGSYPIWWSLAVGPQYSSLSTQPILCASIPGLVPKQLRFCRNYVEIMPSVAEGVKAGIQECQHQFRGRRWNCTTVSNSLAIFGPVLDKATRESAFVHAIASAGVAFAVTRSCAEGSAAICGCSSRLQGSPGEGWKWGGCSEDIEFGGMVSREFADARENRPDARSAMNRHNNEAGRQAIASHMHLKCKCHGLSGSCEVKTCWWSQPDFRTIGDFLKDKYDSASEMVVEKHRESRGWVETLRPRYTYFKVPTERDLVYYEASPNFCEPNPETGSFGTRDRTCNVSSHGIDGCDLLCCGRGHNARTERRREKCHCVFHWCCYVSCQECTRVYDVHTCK
# Sequence of Glucose-6-phosphate 1-dehydrogenase (P11413 whole entry): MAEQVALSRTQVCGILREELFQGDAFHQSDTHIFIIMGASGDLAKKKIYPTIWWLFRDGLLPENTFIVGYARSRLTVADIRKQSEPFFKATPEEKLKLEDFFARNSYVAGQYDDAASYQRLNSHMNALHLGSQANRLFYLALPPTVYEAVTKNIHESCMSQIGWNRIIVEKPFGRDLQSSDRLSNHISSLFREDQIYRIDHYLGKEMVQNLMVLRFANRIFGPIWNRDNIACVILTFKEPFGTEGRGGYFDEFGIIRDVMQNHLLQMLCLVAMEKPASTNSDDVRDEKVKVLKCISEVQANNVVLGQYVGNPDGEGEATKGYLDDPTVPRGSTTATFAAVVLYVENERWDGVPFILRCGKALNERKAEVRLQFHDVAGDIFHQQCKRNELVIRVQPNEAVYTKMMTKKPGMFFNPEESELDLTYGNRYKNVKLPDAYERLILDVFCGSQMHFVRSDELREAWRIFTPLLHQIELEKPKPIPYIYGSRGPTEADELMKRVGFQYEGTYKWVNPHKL
smiles,measurement,setting,value
COc1cc(NCc2ccccc2)c2ncn(C(C)C)c2c1,IC50,[1],> 80 µM (inactive)
CCCCc1ccc(NC(=O)N[C@H](C(=O)O)C(C)C)cc1,IC50,[2],7.04 µM (active)
O=C(CSc1nc(-c2ccccc2)c(-c2ccccc2)[nH]1)N1CCN(S(=O)(=O)c2ccccc2)CC1,IC50,[3],3.67 µM (active)
CCC(C)[C@@H](CN)NCC1(c2ccccc2)CC1 (stereo not given in full),IC50,[4],> 66.6 µM (inactive)
same,IC50,[5],18.4 µM (active)
N#Cc1c(C(F)(F)F)cc(-c2ccccc2)nc1SCC(=O)Nc1sc2c(c1C#N)CCC2,EC50,[6],> 150 µM (inconclusive)
same,EC50,[7],> 150 µM (inconclusive)
same,CC50,[8],> 40 µM (active)
same,EC50,[9],> 150 µM (not active)
same,EC50,[10],> 150 µM (not active)
COc1ccc(C2c3ccc(O)cc3Oc3ncn(Cc4ccco4)c(=N)c32)cc1 (stereo not given),IC50,[3],1.41 µM (active)
same,EC50,[11],> 260 µM (inactive)
O=C(Nc1ccc(Cl)cc1)Nc1nnc(CSCc2ccc(Cl)cc2)s1,AC50,[12],3.99 µM (active)
same,AC50,[13],3.92 µM (active)
N#C/C(=C\c1c[nH]nc1-c1ccccc1Br)C(=O)O,IC50,[3],3.58 µM (active)
O=C1C(Cl)=C(N2CCN(C/C=C/c3ccccc3)CC2)C(=O)N1c1ccnc(Cl)c1,IC50,[14],> 50 µM (inconclusive)
O=C(c1ccc(-c2ccc(Cl)cc2)o1)N1CCN(S(=O)(=O)c2cccs2)CC1,CC50,[8],26 µM (active)
C[N+]1(CCCCSc2ccc(O)cc2)CCCCC1,IC50,[15],6.89 µM (active)
same,IC50,[16],12.1 µM (active)
Cc1nc2ccccc2n1CC(=O)NC(C)C1CC2CCC1C2 (stereo not given),IC50,[17],4.3 µM (active)

# Reference: ChEMBL document CHEMBL1201862, “PubChem BioAssay data set” (2004)
